We go through 27 compounds from patent publication US20250195530A1, “POLQ INHIBITORS” (ASTRAZENECA AB, priority 2022, published 2025).

The subject of the assay is DLD-1 BRCA2−/− cells. The experiment in a line: Homologous recombination synthetic lethal inhibition of proliferation, DLD-1 BRCA2-/- (Cell Titre Glo 3D). It counts as cell-based. Particulars: Homo sapiens, DLD-1, proliferation, luminescence, taken as DLD-1 BRCA2-/-; read-out: POLQ PD Prolif Lumin (converted). Put shortly: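 Isogenic DLD-1 pair; BRCA2−/− seeded 3,000 cells/mL and read day 12, wt seeded 1,500 cells/mL and read day 7. 10-pt titration (top 10 μM, 3-fold), re-fed with compound day 6, 37 °C/5% CO2. CTG 3D endpoint; IC50 at 50% signal loss.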
For `Cn1nc(COc2ccc(-c3nc4c(OC5(C)CC5)ncnc4n3Cc3cccc(Cl)c3)c(Cl)c2)cc1C(=O)O` [Example T394, 3-((3-chloro-4-(9-(3-chlorobenzyl)-6-(1-methylcyclopropoxy)-9H-purin-8-yl)phenoxy)methyl)-1-methyl-1H-pyrazole-5-carboxylic acid], the IC50 is 3160 nM.
With `Cc1ccnc(Cn2c(-c3ccc(C(=O)N4CCC[C@H]4C#N)cc3Cl)nc3c(OC4(C)CC4)ncnc32)c1` [Example T404, (S)-1-(3-chloro-4-(6-(1-methylcyclopropoxy)-9-((4-methylpyridin-2-yl)methyl)-9H-purin-8-yl)benzoyl)pyrrolidine-2-carbonitrile] the figure was 1260 nM.
Consider `Cc1ccnc(Cn2c(-c3ccc(C(=O)N4CC[C@@H](C#N)C4)cc3Cl)nc3c(OC4(C)CC4)ncnc32)c1` [Example T405, (R)-1-(3-chloro-4-(6-(1-methylcyclopropoxy)-9-((4-methylpyridin-2-yl)methyl)-9H-purin-8-yl)benzoyl)pyrrolidine-3-carbonitrile], for which the IC50 was 1260 nM.
With `Cc1ccnc(Cn2c(-c3ccc(C(=O)N4C[C@@H]5C[C@H]4CO5)cc3Cl)nc3c(OC4(C)CC4)ncnc32)c1` [Example T416, ((1S,4S)-2-oxa-5-azabicyclo[2.2.1]heptan-5-yl)(3-chloro-4-(6-(1-methylcyclopropoxy)-9-((4-methylpyridin-2-yl)methyl)-9H-purin-8-yl)phenyl)methanone] the figure was 1580 nM; with `Cc1ccnc(Cn2c(-c3ccc(C(=O)N4CCC[C@H](F)C4)cc3Cl)nc3c(OC4(C)CC4)ncnc32)c1` [Example T418, (S)-(3-chloro-4-(6-(1-methylcyclopropoxy)-9-((4-methylpyridin-2-yl)methyl)-9H-purin-8-yl)phenyl)(3-fluoropiperidin-1-yl)methanone], 631 nM; with `Cc1ccnc(Cn2c(-c3ccc(OCC(=O)N4CC[C@H](F)C4)cc3Cl)nc3c(OC4(C)CC4)ncnc32)c1` [Example T420, (S)-2-(3-chloro-4-(6-(1-methylcyclopropoxy)-9-((4-methylpyridin-2-yl)methyl)-9H-purin-8-yl)phenoxy)-1-(3-fluoropyrrolidin-1-yl)ethan-1-one], 251 nM.
With `Cc1ccnc(Cn2c(-c3ccc(OCC(=O)NC4CC(F)C4)cc3Cl)nc3c(OC4(C)CC4)ncnc32)c1` (stereo not drawn) [Example T421, 2-(3-chloro-4-(6-(1-methylcyclopropoxy)-9-((4-methylpyridin-2-yl)methyl)-9H-purin-8-yl)phenoxy)-N-(3-fluorocyclobutyl)acetamide] the figure was 251 nM; with `Cc1ccnc(Cn2c(-c3ccc(OCC(=O)N4C[C@@H](O)[C@H](F)C4)cc3Cl)nc3c(OC4(C)CC4)ncnc32)c1` [Example T423, 2-(3-chloro-4-(6-(1-methylcyclopropoxy)-9-((4-methylpyridin-2-yl)methyl)-9H-purin-8-yl)phenoxy)-1-((3R,4R)-3-fluoro-4-hydroxypyrrolidin-1-yl)ethan-1-one], 1000 nM.
With `Cc1ccnc(Cn2c(-c3ccc(OC4CC5(COC5)C4)cc3Cl)nc3c(OC4(C)CC4)ncnc32)c1` [Example T426, 8-(4-((2-oxaspiro[3.3]heptan-6-yl)oxy)-2-chlorophenyl)-6-(1-methylcyclopropoxy)-9-((4-methylpyridin-2-yl)methyl)-9H-purine] the figure was 100 nM.
As to `Cc1ccnc(Cn2c(-c3ccc(OCC(=O)N(C)CCC#N)cc3Cl)nc3c(OC4(C)CC4)ncnc32)c1` [Example T430, 2-(3-chloro-4-(6-(1-methylcyclopropoxy)-9-((4-methylpyridin-2-yl)methyl)-9H-purin-8-yl)phenoxy)-N-(2-cyanoethyl)-N-methylacetamide], the IC50 was 501 nM.
Regarding `Cc1ccnc(Cn2c(-c3ccc(OCC(=O)N4CCNC(=O)C4)cc3Cl)nc3c(OC4(C)CC4)ncnc32)c1` [Example T432, 4-(2-(3-chloro-4-(6-(1-methylcyclopropoxy)-9-((4-methylpyridin-2-yl)methyl)-9H-purin-8-yl)phenoxy)acetyl)piperazin-2-one], the IC50 was over 6310 nM.
With `CC(C)(COc1ccc(-c2nc3c(OC4(C)CC4)ncnc3n2Cc2cccc(Cl)c2)c(Cl)c1)CC(=O)O` [Example T436, 4-(3-chloro-4-(9-(3-chlorobenzyl)-6-(1-methylcyclopropoxy)-9H-purin-8-yl)phenoxy)-3,3-dimethylbutanoic acid] the figure was 200 nM; with `CC1(Oc2ncnc3c2nc(-c2cccc(OCCC(C)(C)C(=O)O)c2Cl)n3Cc2cccc(Cl)c2)CC1` [Example T442, 4-(2-chloro-3-(9-(3-chlorobenzyl)-6-(1-methylcyclopropoxy)-9H-purin-8-yl)phenoxy)-2,2-dimethylbutanoic acid], 79.4 nM.
With `Cc1ccnc(Cn2c(-c3ccc(CC(=O)N4CC[C@@H](O)C4)cc3Cl)nc3c(OC4(C)CC4)ncnc32)c1` [Example T458, (R)-2-(3-chloro-4-(6-(1-methylcyclopropoxy)-9-((4-methylpyridin-2-yl)methyl)-9H-purin-8-yl)phenyl)-1-(3-hydroxypyrrolidin-1-yl)ethan-1-one] the figure was 631 nM.
With `Cc1ccnc(Cn2c(-c3ccc(C(=O)N4CCC[C@@H]4CO)cc3Cl)nc3c(OC4(C)CC4)ncnc32)c1` [Example T459, (R)-(3-chloro-4-(6-(1-methylcyclopropoxy)-9-((4-methylpyridin-2-yl)methyl)-9H-purin-8-yl)phenyl)(2-(hydroxymethyl)pyrrolidin-1-yl)methanone] the figure was 1260 nM.
On to `Cc1ccnc(Cn2c(-c3ccc(C(=O)N4CCC[C@H](O)C4)cc3Cl)nc3c(OC4(C)CC4)ncnc32)c1` [Example T461, (S)-(3-chloro-4-(6-(1-methylcyclopropoxy)-9-((4-methylpyridin-2-yl)methyl)-9H-purin-8-yl)phenyl)(3-hydroxypiperidin-1-yl)methanone], for which the IC50 was 1260 nM.
With `Cc1ccnc(Cn2c(-c3ccc(C(=O)N(C)CC4(O)CC4)cc3Cl)nc3c(OC4(C)CC4)ncnc32)c1` [Example T462, 3-chloro-N-((1-hydroxycyclopropyl)methyl)-N-methyl-4-(6-(1-methylcyclopropoxy)-9-((4-methylpyridin-2-yl)methyl)-9H-purin-8-yl)benzamide] the figure was 1580 nM; with `Cc1ccnc(Cn2c(-c3ccc(C(=O)N4CC[C@@](C)(O)C4)cc3Cl)nc3c(OC4(C)CC4)ncnc32)c1` [Example T463, (R)-(3-chloro-4-(6-(1-methylcyclopropoxy)-9-((4-methylpyridin-2-yl)methyl)-9H-purin-8-yl)phenyl)(3-hydroxy-3-methylpyrrolidin-1-yl)methanone], 1580 nM; with `Cc1ccnc(Cn2c(-c3ccc(C(=O)N4CC[C@@H](CO)C4)cc3Cl)nc3c(OC4(C)CC4)ncnc32)c1` [Example T464, (R)-(3-chloro-4-(6-(1-methylcyclopropoxy)-9-((4-methylpyridin-2-yl)methyl)-9H-purin-8-yl)phenyl)(3-(hydroxymethyl)pyrrolidin-1-yl)methanone], 1580 nM.
With `CO[C@H]1CCN(C(=O)c2ccc(-c3nc4c(OC5(C)CC5)ncnc4n3Cc3cc(C)ccn3)c(Cl)c2)C1` [Example T465, (S)-(3-chloro-4-(6-(1-methylcyclopropoxy)-9-((4-methylpyridin-2-yl)methyl)-9H-purin-8-yl)phenyl)(3-methoxypyrrolidin-1-yl)methanone] the figure was 631 nM.
With `Cc1ccnc(Cn2c(-c3ccc(C(=O)N4CCC[C@H]4CO)cc3Cl)nc3c(OC4(C)CC4)ncnc32)c1` [Example T466, (S)-(3-chloro-4-(6-(1-methylcyclopropoxy)-9-((4-methylpyridin-2-yl)methyl)-9H-purin-8-yl)phenyl)(2-(hydroxymethyl)pyrrolidin-1-yl)methanone] the figure was 1000 nM; with `Cc1ccnc(Cn2c(-c3ccc(OCC(=O)N4CCCC4)cc3Cl)nc3c(OC4(C)CC4)ncnc32)c1` [Example T467, 2-(3-chloro-4-(6-(1-methylcyclopropoxy)-9-((4-methylpyridin-2-yl)methyl)-9H-purin-8-yl)phenoxy)-1-(pyrrolidin-1-yl)ethan-1-one], 316 nM.
For the compound `Cc1ccnc(Cn2c(-c3ccc(OCCN4CCCC4=O)cc3Cl)nc3c(OC4(C)CC4)ncnc32)c1` [Example T469, 1-(2-(3-chloro-4-(6-(1-methylcyclopropoxy)-9-((4-methylpyridin-2-yl)methyl)-9H-purin-8-yl)phenoxy)ethyl)pyrrolidin-2-one], the IC50 was 158 nM.
On to `CCC(=O)N1CC(Oc2ccc(-c3nc4c(OC5(C)CC5)ncnc4n3Cc3cc(C)ccn3)c(Cl)c2)C1` [Example T471, 1-(3-(3-chloro-4-(6-(1-methylcyclopropoxy)-9-((4-methylpyridin-2-yl)methyl)-9H-purin-8-yl)phenoxy)azetidin-1-yl)propan-1-one], for which the IC50 was 158 nM.
As to `CC(=O)N1CC[C@@H](Oc2ccc(-c3nc4c(OC5(C)CC5)ncnc4n3Cc3cc(C)ccn3)c(Cl)c2)C1` [Example T472, (R)-1-(3-(3-chloro-4-(6-(1-methylcyclopropoxy)-9-((4-methylpyridin-2-yl)methyl)-9H-purin-8-yl)phenoxy)pyrrolidin-1-yl)ethan-1-one], the IC50 is 200 nM.
With `Cc1ccnc(Cn2c(-c3ccc(OCC(=O)N4CC[C@@H](O)C4)cc3Cl)nc3c(OC4(C)CC4)ncnc32)c1` [Example T473, (R)-2-(3-chloro-4-(6-(1-methylcyclopropoxy)-9-((4-methylpyridin-2-yl)methyl)-9H-purin-8-yl)phenoxy)-1-(3-hydroxypyrrolidin-1-yl)ethan-1-one] the figure was 1000 nM; with `Cc1ccnc(Cn2c(-c3ccc(OCCN4CC[C@@H](O)C4=O)cc3Cl)nc3c(OC4(C)CC4)ncnc32)c1` [Example T474, (R)-1-(2-(3-chloro-4-(6-(1-methylcyclopropoxy)-9-((4-methylpyridin-2-yl)methyl)-9H-purin-8-yl)phenoxy)ethyl)-3-hydroxypyrrolidin-2-one], 251 nM.
